Data as given in patent US20170050957A1, “4-AMINO-6-(HETEROCYCLIC)PICOLINATES AND 6-AMINO-2-(HETEROCYCLIC)PYRIMIDINE-4-CARBOXYLATES AND THEIR USE AS HERBICIDES” (Dow AgroSciences LLC, priority 2013, published 2017).
Read-outs that look alike come from different tables or passages of the source.

What was measured:
[1] = system: Key Grass and Sedge Weeds as well as Grass Crops; test: Post-emergent Test II herbicidal activity (Table 16); type: in vivo; conditions: post-emergence, 336 h, 14 d; for pest or weed control at 35 g/ha: 35 g ai/ha; for pest or weed control at 70 g/ha: 70 g ai/ha; for pest or weed control at 140 g/ha: 140 g ai/ha
Outline: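 Post-emergence spray; seedlings 7-21 d old, 1st-2nd true leaf; 187 L/ha; serial rates 1×-1/16×; solvent blank controls; subirrigated; visual % injury at 14 d.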

[2] = system: Key Broadleaf Weed and Crop Species; test: Post-emergent Test II herbicidal activity (Table 15); type: in vivo; conditions: post-emergence, 336 h, 14 d; for pest or weed control at 35 g/ha: 35 g ai/ha; for pest or weed control at 70 g/ha: 70 g ai/ha
Method: Post-emergent Test II: Seeds or nutlets of the desired test plant species were planted in Sun Gro Metro-Mix® 360 planting mixture, which typically has a pH of 6.0 to 6.8 and an organic matter content of about 30 percent, in plastic pots with a surface area of 64 square centimeters. When required to ensure good germination and healthy plants, a fungicide treatment and/or other chemical or physical treatment was applied. The plants were grown for 7-21 d in a greenhouse with an approximate 15 h photoperiod which was maintained at about 23-29° C. during the day and 22-28° C. during the night. Nutrients and water were added on a regular basis and supplemental lighting was provided with overhead metal halide 1000-Watt lamps as necessary. The plants were employed for testing when they reached the first or second true leaf stage.
A weighed amount, determined by the highest rate to be tested, of each test compound was placed in a 25 mL glass vial and was dissolved in 4 mL of a 97:3 v/v mixture of acetone and DMSO to obtain concentrated stock solutions. […] The concentrated stock solutions obtained were diluted with 20 mL of an aqueous mixture containing acetone, water, isopropyl alcohol, DMSO, Atplus 411F crop oil concentrate, and Triton® X-155 surfactant in a 48.5:39:10:1.5:1.0:0.02 v/v ratio to obtain spray solutions containing the highest application rates. Additional application rates were obtained by serial dilution of 12 mL of the high rate solution into a solution containing 2 mL of 97:3 v/v mixture of acetone and DMSO and 10 mL of an aqueous mixture containing acetone, water, isopropyl alcohol, DMSO, Atplus 411F crop oil concentrate, and Triton X-155 surfactant in a 48.5:39:10:1.5:1.0:0.02 v/v ratio to obtain 1/2×, 1/4×, 1/8× and 1/16× rates of the high rate. Compound requirements are based upon a 12 mL application volume at a rate of 187 liters per hectare (L/ha). Formulated compounds were applied to the plant material with an overhead Mandel track sprayer equipped with 8002E nozzles calibrated to deliver 187 L/ha over an application area of 0.503 square meters at a spray height of 18 inches (43 cm) above the average plant canopy height. Control plants were sprayed in the same manner with the solvent blank.
The treated plants and control plants were placed in a greenhouse as described above and watered by subirrigation to prevent wash-off of the test compounds. After 14 d, the condition of the test plants as compared with that of the untreated plants was determined visually and scored on a scale of 0 to 100 percent where 0 corresponds to no injury and 100 corresponds to complete kill.

[3] = Cyperus esculentus, yellow nutsedge (Cyperus esculentus), read-out: Visual Growth Reduction (%) 14 Days After Application, CYPES
[4] = Echinochloa crus-galli, barnyardgrass (Echinochloa crus-galli), read-out: Visual Growth Reduction (%) 14 Days After Application, ECHCG
[5] = Oryza sativa, rice (Oryza sativa), read-out: Visual Growth Reduction (%) 14 Days After Application, ORYSA
[6] = Setaria faberi, giant foxtail (Setaria faberi), read-out: Visual Growth Reduction (%) 14 Days After Application, SETFA
[7] = Triticum aestivum, wheat, spring (Triticum aestivum), read-out: Visual Growth Reduction (%) 14 Days After Application, TRZAS
[8] = Zea mays, maize, corn (Zea mays), read-out: Visual Growth Reduction (%) 14 Days After Application, ZEAMX
[9] = Abutilon theophrasti, velvetleaf (Abutilon theophrasti), read-out: Visual Growth Reduction (%) 14 Days After Application, ABUTH
[10] = Amaranthus retroflexus, redroot pigweed (Amaranthus retroflexus), read-out: Visual Growth Reduction (%) 14 Days After Application, AMARE
[11] = Brassica napus, oilseed rape, canola (Brassica napus), read-out: Visual Growth Reduction (%) 14 Days After Application, BRSNN
[12] = Chenopodium album, lambsquarters (Chenopodium album), read-out: Visual Growth Reduction (%) 14 Days After Application, CHEAL
[13] = Euphorbia heterophylla, wild poinsettia (Euphorbia heterophylla), read-out: Visual Growth Reduction (%) 14 Days After Application, EPHHL
[14] = Helianthus annuus, sunflower (Helianthus annuus), read-out: Visual Growth Reduction (%) 14 Days After Application, HELAN

| Structure (SMILES) | melting point | pest or weed control at 35 g/ha [1, 3] | pest or weed control at 70 g/ha [1, 3] | pest or weed control at 35 g/ha [1, 4] | pest or weed control at 70 g/ha [1, 4] | pest or weed control at 35 g/ha [1, 5] | pest or weed control at 70 g/ha [1, 5] | pest or weed control at 35 g/ha [1, 7] | pest or weed control at 70 g/ha [1, 7] | pest or weed control at 35 g/ha [1, 8] | pest or weed control at 70 g/ha [1, 8] | pest or weed control at 35 g/ha [2, 9] | pest or weed control at 70 g/ha [2, 9] | pest or weed control at 35 g/ha [2, 10] | pest or weed control at 70 g/ha [2, 10] | pest or weed control at 35 g/ha [2, 11] | pest or weed control at 70 g/ha [2, 11] | pest or weed control at 35 g/ha [2, 12] | pest or weed control at 70 g/ha [2, 12] | pest or weed control at 35 g/ha [2, 13] | other results |
| --- | --- | --- | --- | --- | --- | --- | --- | --- | --- | --- | --- | --- | --- | --- | --- | --- | --- | --- | --- | --- | --- |
| COC(=O)c1nc(-c2ccc3cc[nH]c3c2)cc(N)c1Cl [Compound 1.21] | 83 to 85 °C | 0 to 29% | 0 to 29% | 0 to 29% | 0 to 29% | 0 to 29% | 0 to 29% | 0 to 29% | 0 to 29% | 0 to 29% | 0 to 29% | 60 to 74% | 60 to 74% | 0 to 29% | 0 to 29% | 0 to 29% | 0 to 29% | 45 to 59% | 85 to 94% | 75 to 84% | pest or weed control at 140 g/ha [1, 3]: 0 to 29%; pest or weed control at 140 g/ha [1, 5]: 0 to 29%; pest or weed control at 140 g/ha [1, 6]: 0 to 29%; pest or weed control at 140 g/ha [1, 7]: 0 to 29%; pest or weed control at 140 g/ha [1, 8]: 0 to 29%; pest or weed control at 70 g/ha [2, 13]: 85 to 94%; pest or weed control at 35 g/ha [2, 14]: 45 to 59%; pest or weed control at 70 g/ha [2, 14]: 75 to 84% |
| C=Cc1c(N)nc(-c2ccc3cc[nH]c3c2F)nc1C(=O)O [Compound 1.39] | 209 to 211 °C | 0 to 29% | 0 to 29% | 0 to 29% | 0 to 29% | 0 to 29% | 0 to 29% | 0 to 29% | 0 to 29% | 0 to 29% | 0 to 29% | 0 to 29% | 0 to 29% | 95 to 100% | 95 to 100% | 75 to 84% | 85 to 94% | 95 to 100% | 75 to 84% | 85 to 94% | pest or weed control at 35 g/ha [1, 6]: 0 to 29%; pest or weed control at 70 g/ha [1, 6]: 0 to 29%; pest or weed control at 70 g/ha [2, 13]: 75 to 84%; pest or weed control at 35 g/ha [2, 14]: 0 to 29%; pest or weed control at 70 g/ha [2, 14]: 0 to 29% |
